Source: ChEMBL document CHEMBL1201862, “PubChem BioAssay data set” (2004)
Active and inactive are the calls of the source.

Assays:
[1] = insulin promoter down-regulators in MIN6 cells, imaging, high-content screening, mouse beta cells (AID 1628); format: functional
[2] = cytotoxicity in MIN6 insulinoma cells, dose response, cytotoxicity control, cell-based, mouse insulinoma (AID 2122); format: functional;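 also: confirmatory high-throughput counterscreen run to flag cytotoxic compounds; mouse MIN-6 beta cells carrying an insulin promoter eGFP reporter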
CAAX prenyl protease 2 = CAAX prenyl protease 2 (Saccharomyces cerevisiae S288c, UniProt Q03530); format: biochemical
Trypsin = Trypsin (Sus scrofa, UniProt P00761); assay: porcine trypsin inhibitors, dose response, selectivity assay for Rce1 protease inhibitor project, biochemical, quenched peptide fluorescence, cherry-pick (AID 488789)
[3] = inhibitors of intracellular T. cruzi replication, confirmation, NIH3T3 host cells, beta-gal luminescence (AID 2044); format: functional, cell-based;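 also: intracellular parasites grown in NIH/3T3 mouse fibroblasts as host cells; luminescent beta-galactosidase reporter signal from transgenic T. cruzi replicating inside host cells; inhibitors lower the luminescence signal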
[4] = cytotoxicity toward NIH3T3 fibroblasts, dose response, counter-screen, cell-based, ATP luminescence, mouse fibroblasts (AID 2010); format: functional;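 also: cells exposed to compound for about 90 hours before reading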
INS1 = assay: beta cell apoptosis inhibitors, cytokine rescue, dose response, luminescence, retest (AID 449756); format: functional, cell-based; details: Rattus norvegicus;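 also: cell death triggered by IL-1 beta plus TNF-alpha plus IFN-gamma mixture; protective hits raise ATP signal compared with cytokine alone wells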
[5] = NIH-3T3 fibroblast cytotoxicity, dose response, cytotoxicity control, cell-based, fluorescence, Alamar Blue, secondary assay (AID 2327); format: functional;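 also: NIH-3T3 mouse fibroblasts cultured with fluconazole at 8 µg/mL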
[6] = Vero E6 cell cytotoxicity, dose response, cytotoxicity control for non-replicating M. tuberculosis project, secondary assay (AID 492998); format: functional, VeroE6; details: Vero C1008
cells = format: functional
[7] = molecular target: T1, Short transient receptor potential channel 4 (Mus musculus, UniProt Q9QUQ5); assay: mouse TRPC4 channel activators, dose response, cell-based, HEK293 TRPC4/mu-opioid, Fluo-4 calcium (AID 434937); format: functional
T1 sequence (Q9QUQ5 whole entry): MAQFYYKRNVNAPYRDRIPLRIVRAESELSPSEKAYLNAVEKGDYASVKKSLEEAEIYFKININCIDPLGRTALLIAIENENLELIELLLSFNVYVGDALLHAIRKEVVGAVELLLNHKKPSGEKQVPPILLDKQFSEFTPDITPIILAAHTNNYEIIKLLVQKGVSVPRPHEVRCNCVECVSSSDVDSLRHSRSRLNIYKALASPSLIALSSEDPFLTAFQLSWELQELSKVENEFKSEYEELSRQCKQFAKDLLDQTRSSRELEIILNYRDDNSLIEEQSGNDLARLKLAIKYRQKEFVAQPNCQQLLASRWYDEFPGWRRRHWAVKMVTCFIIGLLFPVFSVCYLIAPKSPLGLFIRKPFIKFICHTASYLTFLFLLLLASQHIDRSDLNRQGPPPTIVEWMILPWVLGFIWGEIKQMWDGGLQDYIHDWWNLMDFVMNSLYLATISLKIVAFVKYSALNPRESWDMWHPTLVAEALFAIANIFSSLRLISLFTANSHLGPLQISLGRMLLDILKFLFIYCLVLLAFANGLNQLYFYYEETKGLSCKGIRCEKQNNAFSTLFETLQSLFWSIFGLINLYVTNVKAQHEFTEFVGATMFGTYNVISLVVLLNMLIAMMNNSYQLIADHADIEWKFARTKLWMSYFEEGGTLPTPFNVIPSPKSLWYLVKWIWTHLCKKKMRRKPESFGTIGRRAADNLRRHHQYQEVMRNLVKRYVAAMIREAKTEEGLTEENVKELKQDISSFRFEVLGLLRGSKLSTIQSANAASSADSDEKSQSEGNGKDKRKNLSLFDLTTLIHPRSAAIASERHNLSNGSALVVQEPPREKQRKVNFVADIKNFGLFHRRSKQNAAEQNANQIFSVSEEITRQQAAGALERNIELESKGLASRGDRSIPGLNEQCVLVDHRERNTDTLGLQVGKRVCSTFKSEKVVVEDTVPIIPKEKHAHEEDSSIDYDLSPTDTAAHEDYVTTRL

[8] = THP-1 cell cytotoxicity, dose response, cytotoxicity control for non-replicating M. tuberculosis project (AID 489025); format: functional
[9] = molecular target: NACHT, LRR and PYD domains-containing protein 3 (Homo sapiens, UniProt Q96P20); assay: NALP3 inhibitors in yeast, dose response, luminescent (AID 488799); format: functional
Vero [10] = assay: cells; format: functional; details: Chlorocebus sabaeus
[11] = C. albicans growth with fluconazole, confirmation, fluorescence, retest (AID 2467); format: functional, cell-based
Vero [12] = assay: cells; format: functional, cell-based; details: Chlorocebus sabaeus
[13] = molecular target: Voltage-dependent T-type calcium channel subunit alpha-1H (Homo sapiens, UniProt O95180); format: functional;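 also: channel activity triggered by adding a high calcium stimulation buffer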
[14] = mammalian cell cytotoxicity, dose response, cytotoxicity control, plate reader, cherry-pick samples (AID 504397); format: functional, cell-based
Cannabinoid receptor 1 [15] = molecular target: T2, Cannabinoid receptor 1 (Homo sapiens, UniProt P21554); assay: SAR analysis of agonists of the Cannabinoid Receptor 1 using an Image-Based Assay - Set 4. [Related pubchem assays (depositor defined):AID2013, AID2026]; format: functional
[16] = molecular target: T3, G-protein coupled receptor 35 (Homo sapiens, UniProt Q9HC97); assay: SAR analysis of Agonists of the GPR35 Receptor using an Image-Based Assay - Set 4. [Related pubchem assays (depositor defined):AID2013, AID2026]; format: functional
[17] = molecular target: T3, G-protein coupled receptor 35; assay: SAR analysis of Antagonists of the GPR35 Receptor using an Image-Based Assay - Set 6. [Related pubchem assays (depositor defined):AID2013, AID2026]; format: functional
Cannabinoid receptor 2 [18] = molecular target: T4, Cannabinoid receptor 2 (Homo sapiens, UniProt P34972); assay: SAR analysis of antagonists of the Cannabinoid Receptor 2 using an Image-Based Assay - Set 3. [Related pubchem assays (depositor defined):AID2013, AID2026]; format: functional
Cannabinoid receptor 1 [19] = molecular target: T2, Cannabinoid receptor 1; assay: SAR analysis of antagonists of the Cannabinoid Receptor 1 using an Image-Based Assay - Set 4. [Related pubchem assays (depositor defined):AID2013, AID2026]; format: functional
Cannabinoid receptor 2 [20] = molecular target: T4, Cannabinoid receptor 2; assay: SAR analysis of agonists of the Cannabinoid Receptor 2 using an Image-Based Assay - Set 3. [Related pubchem assays (depositor defined):AID2013, AID2026]; format: functional
[21] = molecular target: G-protein coupled receptor 55 (Homo sapiens, UniProt Q9Y2T6); assay: SAR Analysis of Selective Antagonists of GPR55 using an Image-Based Assay - Set 4. [Related pubchem assays (depositor defined):AID2013, AID2026]; format: functional;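 also: antagonism of response to 5 µM lysophosphatidylinositol agonist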
[22] = molecular target: Alkaline phosphatase, placental type (Homo sapiens, UniProt P05187); assay: PLAP enzyme inhibitors, confirmation, biochemical, luminescence (AID 1512); format: functional
[23] = molecular target: T5, Alkaline phosphatase, tissue-nonspecific isozyme (Homo sapiens, UniProt P05186); assay: human TNAP enzyme inhibitors, SAR follow-up, biochemical, luminescent, dose response (AID 1056)
T5 sequence (P05186 whole entry): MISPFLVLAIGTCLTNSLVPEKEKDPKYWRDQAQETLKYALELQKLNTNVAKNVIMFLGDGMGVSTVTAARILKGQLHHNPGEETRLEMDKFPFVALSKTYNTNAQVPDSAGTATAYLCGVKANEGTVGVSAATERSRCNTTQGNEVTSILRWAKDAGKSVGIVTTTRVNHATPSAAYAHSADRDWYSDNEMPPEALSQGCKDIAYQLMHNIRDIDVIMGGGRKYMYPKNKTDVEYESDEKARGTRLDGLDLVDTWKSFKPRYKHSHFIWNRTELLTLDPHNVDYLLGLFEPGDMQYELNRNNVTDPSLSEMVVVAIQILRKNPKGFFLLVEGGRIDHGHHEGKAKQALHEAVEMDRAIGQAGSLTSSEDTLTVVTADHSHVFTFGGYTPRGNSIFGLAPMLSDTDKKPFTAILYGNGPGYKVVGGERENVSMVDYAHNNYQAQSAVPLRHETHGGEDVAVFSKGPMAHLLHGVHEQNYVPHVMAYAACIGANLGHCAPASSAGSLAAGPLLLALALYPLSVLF

T2 sequence (P21554 whole entry): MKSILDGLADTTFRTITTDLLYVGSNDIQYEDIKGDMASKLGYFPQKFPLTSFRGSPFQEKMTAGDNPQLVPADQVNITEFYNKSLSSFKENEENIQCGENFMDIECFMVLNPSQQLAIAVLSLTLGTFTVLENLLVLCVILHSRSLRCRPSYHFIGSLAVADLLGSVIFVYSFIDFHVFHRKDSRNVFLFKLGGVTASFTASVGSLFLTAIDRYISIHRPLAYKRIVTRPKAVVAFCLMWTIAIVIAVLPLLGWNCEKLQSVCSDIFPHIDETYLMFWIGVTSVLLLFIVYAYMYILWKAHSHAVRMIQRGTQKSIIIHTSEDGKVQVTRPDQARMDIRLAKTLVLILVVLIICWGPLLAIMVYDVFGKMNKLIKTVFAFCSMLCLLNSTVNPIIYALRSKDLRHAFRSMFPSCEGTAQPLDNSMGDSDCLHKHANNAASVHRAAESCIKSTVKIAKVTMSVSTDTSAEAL
T3 sequence (Q9HC97 whole entry): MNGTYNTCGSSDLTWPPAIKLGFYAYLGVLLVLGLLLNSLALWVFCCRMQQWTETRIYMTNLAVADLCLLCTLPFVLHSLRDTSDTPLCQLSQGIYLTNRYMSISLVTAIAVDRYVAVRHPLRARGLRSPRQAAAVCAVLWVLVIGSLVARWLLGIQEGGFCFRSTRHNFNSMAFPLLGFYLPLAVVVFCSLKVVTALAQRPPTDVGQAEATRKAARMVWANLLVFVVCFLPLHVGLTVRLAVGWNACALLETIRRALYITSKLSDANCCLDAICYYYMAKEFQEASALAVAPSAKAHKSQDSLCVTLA
T4 sequence (P34972 whole entry): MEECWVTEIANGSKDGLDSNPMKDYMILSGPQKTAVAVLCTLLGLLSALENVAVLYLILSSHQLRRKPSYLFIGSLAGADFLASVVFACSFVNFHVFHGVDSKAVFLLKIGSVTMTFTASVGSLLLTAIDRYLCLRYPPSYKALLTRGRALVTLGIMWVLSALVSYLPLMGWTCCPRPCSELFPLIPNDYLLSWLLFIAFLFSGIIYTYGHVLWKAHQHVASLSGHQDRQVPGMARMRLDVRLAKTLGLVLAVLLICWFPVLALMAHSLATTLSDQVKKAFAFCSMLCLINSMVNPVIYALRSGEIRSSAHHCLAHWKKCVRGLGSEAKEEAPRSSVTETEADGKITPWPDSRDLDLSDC
Chain of Alkaline phosphatase, placental type (P05187 whole entry): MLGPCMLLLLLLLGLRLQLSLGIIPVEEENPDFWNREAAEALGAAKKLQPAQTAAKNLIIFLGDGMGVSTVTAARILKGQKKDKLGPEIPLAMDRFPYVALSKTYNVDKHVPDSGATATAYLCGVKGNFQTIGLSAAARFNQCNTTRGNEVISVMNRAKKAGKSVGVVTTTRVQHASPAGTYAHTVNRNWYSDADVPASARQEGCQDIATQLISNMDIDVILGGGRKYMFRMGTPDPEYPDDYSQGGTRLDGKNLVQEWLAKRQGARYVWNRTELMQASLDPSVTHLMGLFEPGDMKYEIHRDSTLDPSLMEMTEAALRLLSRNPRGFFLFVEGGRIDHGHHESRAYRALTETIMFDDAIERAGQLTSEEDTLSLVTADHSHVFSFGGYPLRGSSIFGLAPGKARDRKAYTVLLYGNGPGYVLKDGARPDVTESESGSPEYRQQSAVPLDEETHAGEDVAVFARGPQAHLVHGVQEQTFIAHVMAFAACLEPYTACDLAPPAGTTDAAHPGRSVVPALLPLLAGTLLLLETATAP
Chain of Voltage-dependent T-type calcium channel subunit alpha-1H (O95180 whole entry): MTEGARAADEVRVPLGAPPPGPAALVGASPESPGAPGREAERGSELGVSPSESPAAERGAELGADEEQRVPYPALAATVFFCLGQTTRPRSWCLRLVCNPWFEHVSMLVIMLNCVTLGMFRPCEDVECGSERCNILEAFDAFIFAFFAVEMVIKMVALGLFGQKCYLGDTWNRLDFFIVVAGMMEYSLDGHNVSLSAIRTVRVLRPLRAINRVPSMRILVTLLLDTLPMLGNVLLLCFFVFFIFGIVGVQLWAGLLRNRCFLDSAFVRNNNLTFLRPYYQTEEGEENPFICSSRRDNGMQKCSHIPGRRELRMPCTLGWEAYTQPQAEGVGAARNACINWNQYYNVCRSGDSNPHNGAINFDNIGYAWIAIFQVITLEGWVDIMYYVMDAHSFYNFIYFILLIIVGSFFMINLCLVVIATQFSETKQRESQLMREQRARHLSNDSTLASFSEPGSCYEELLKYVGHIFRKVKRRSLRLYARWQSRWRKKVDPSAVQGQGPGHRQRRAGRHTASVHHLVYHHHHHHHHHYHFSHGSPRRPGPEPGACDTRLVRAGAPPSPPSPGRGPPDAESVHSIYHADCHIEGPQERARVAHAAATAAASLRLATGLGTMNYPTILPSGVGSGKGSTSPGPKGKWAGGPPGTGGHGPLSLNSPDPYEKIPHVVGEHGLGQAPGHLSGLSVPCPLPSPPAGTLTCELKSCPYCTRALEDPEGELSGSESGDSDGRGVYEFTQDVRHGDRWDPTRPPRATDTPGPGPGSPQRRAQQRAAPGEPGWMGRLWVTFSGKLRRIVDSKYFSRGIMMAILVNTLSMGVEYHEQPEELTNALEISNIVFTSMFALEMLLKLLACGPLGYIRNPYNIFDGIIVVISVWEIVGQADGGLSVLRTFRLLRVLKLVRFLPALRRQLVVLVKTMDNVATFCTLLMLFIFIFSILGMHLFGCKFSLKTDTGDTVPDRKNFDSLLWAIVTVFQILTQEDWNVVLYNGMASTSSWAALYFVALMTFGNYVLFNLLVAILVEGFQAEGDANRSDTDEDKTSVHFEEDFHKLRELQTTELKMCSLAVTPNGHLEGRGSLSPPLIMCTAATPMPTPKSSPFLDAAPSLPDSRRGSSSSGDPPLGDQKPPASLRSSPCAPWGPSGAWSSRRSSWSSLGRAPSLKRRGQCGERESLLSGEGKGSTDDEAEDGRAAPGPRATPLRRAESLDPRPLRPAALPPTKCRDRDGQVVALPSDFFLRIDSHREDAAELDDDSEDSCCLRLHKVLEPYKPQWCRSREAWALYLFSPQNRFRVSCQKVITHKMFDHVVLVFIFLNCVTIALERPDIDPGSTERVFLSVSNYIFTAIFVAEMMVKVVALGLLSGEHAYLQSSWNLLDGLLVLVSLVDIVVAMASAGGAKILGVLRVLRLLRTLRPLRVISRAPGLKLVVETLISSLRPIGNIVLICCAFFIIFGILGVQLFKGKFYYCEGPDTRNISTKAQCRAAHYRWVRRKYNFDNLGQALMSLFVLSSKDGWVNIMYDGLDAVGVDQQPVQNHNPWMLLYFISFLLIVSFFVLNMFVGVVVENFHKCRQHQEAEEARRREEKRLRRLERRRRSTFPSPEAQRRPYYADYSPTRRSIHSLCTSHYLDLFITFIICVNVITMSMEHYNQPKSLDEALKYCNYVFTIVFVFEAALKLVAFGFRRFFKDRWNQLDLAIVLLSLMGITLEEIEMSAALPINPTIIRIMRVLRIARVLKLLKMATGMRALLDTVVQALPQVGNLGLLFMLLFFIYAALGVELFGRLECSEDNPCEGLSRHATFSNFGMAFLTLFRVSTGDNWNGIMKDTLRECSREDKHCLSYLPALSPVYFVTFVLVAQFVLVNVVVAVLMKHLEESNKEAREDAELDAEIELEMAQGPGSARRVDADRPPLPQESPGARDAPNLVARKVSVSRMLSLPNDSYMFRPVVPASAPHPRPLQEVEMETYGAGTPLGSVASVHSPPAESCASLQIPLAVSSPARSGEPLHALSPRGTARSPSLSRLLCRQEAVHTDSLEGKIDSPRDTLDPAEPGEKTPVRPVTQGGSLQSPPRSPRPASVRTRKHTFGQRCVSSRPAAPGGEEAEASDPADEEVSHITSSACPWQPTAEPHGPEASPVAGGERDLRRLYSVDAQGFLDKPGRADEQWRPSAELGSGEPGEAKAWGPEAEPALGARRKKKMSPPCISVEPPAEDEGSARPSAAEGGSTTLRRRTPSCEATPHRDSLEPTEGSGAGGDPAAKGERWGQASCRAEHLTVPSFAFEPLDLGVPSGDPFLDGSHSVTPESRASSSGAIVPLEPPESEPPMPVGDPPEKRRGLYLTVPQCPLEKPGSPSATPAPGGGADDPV
Chain of NACHT, LRR and PYD domains-containing protein 3 (Q96P20 whole entry, the tested form may be a part): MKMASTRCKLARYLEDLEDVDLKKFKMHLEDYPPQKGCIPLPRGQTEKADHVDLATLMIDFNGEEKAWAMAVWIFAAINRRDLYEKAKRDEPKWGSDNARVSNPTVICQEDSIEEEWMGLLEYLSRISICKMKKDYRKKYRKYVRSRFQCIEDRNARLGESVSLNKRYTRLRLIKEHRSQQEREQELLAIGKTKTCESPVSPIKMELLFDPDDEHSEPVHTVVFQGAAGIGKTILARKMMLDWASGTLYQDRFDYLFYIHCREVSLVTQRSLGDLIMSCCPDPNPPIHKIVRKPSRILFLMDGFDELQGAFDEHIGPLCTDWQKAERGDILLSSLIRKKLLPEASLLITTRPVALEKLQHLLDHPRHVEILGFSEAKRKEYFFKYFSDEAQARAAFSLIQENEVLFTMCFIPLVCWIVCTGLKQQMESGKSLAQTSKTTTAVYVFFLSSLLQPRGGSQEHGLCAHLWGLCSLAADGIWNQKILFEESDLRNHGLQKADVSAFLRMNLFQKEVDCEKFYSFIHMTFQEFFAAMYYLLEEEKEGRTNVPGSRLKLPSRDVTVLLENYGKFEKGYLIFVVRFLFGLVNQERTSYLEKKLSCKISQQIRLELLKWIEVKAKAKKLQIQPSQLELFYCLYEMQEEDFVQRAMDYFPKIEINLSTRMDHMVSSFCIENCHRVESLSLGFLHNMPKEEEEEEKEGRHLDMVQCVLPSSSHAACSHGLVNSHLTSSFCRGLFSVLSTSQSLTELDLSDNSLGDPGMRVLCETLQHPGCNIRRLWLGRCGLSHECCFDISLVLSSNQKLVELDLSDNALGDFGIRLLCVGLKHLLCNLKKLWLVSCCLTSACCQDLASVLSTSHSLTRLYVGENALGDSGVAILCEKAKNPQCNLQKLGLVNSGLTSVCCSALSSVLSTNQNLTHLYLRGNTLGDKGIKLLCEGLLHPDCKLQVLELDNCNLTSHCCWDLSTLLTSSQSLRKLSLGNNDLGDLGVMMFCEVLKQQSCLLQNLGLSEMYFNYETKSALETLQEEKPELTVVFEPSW

Cc1ccc(-c2cc(C(F)F)n3ncc(C(=O)NN4CCCCC4)c3n2)cc1
IC50 [1]: 2.39 µM (active) | IC50 [2]: 6.4 µM (active)

N#Cc1c(Cl)nc(Cl)c2c1CCN(Cc1ccccc1)C2
AC50 (CAAX prenyl protease 2): 22.8 µM (active) | AC50 (Trypsin): 7.02 µM (active)

Cc1ccc(-c2cn3c([n+]2-c2ccccc2)CCC3)cc1
EC50 [3]: 0.94 µM (active) | EC50 [4]: > 60 µM (not active) | IC50 [1]: < 0.25 µM (active) | AC50 (INS1): 2.5 µM (active) | IC50 [2]: < 0.25 µM (active)

CCCOc1ccc(C(=O)NNC(=S)NC(=O)c2cccs2)cc1
EC50 [5]: 18.5 µM (active) | CC50 [6]: 6.29 µM (active) | IC50 (cells): 0.5 µM (active) | EC50 [7]: 3.76 µM (active) | CC50 [8]: 5.22 µM (active) | IC50 [9]: 8.96 µM (active) | CC50 (Vero [10]): 15.6 µM (active) | EC50 [11]: 0.391 µM (active) | IC50 (Vero [12]): > 25 µM (active)

O=C(CN(C1CCCCC1)C1CCCCC1)N1CCc2ccccc2C1
EC50 [13]: 4.36 µM (active) | AC50 [14]: 204 µM (active)

Cc1cc(C)cc(Nc2nc(-c3ccc(S(=O)(=O)N4CCCC4)cc3)cs2)c1
AC50 [14]: > 350 µM (inactive)

Cc1ccc(-c2nnc(C)c3nn(-c4ccccc4)cc23)cc1
EC50 (Cannabinoid receptor 1 [15]): > 32 µM (inactive) | EC50 [16]: > 32 µM (inactive) | IC50 [17]: > 32 µM (inactive) | IC50 (Cannabinoid receptor 2 [18]): > 32 µM (inactive) | IC50 (Cannabinoid receptor 1 [19]): 4.61 µM (active) | EC50 (Cannabinoid receptor 2 [20]): > 32 µM (inactive) | IC50 [21]: > 32 µM (inactive)

CCN(CC)c1ccc(C(=O)CSc2nc(C)cc(C)n2)cc1
IC50 [22]: > 100 µM (inactive) | IC50 [23]: > 100 µM (inactive)
